≈ marks a conversion by molar mass, not a printed value. Marks after values point to notes of the source that are not given here.
Key:
[1] = test system: PALB2; experiment: qRT-PCR, PALB2 in PACA2 cells; assay type: cell-based, human; settings: versus negative untreated sample
[2] = test system: colon cancer (HCT116); experiment: cells; assay type: cell-based; settings: Homo sapiens
[3] = test system: Bacillus mycoides; experiment: microbe, parasite or virus in culture; assay type: cell-based
[4] = test system: PC3; experiment: DNA fragmentation assay, PC3; assay type: cell-based, human
[5] = test system: FASN; experiment: qRT-PCR, FASN in HCT116 cells; assay type: cell-based, human; settings: versus negative samples
[6] = test system: osteosarcoma cell line (HOS); experiment: cells; assay type: cell-based; settings: 48 h; for IC50: MTT

Compound: Cc1ccc(S(=O)(=O)NC(=O)Nc2ccc(C(F)(F)F)cc2)cc1 [Compound 7, 4-Methyl-N-[(4-{trifluoromethyl}phenyl)carbamoyl]benzenesulfonamide]
- PALB2 gene expression level [1]: significantly reduced
- mortality at 100 µg/mL ([2]; HCT-116, 48 h, 100 μg/mL): 100%
- IC50 ([2]; HCT-116, MTT, 48 h): 93.5 ± 1.4 µM
- zone of inhibition at 4.88 µg/mL ([3]; read-out: Inhibition zone): 0 mm
- zone of inhibition at 9.75 µg/mL ([3]; read-out: Inhibition zone): 15 mm
- zone of inhibition at 19.5 µg/mL ([3]; read-out: Inhibition zone): 15 mm
- zone of inhibition at 39.1 µg/mL ([3]; read-out: Inhibition zone): 16 mm
- zone of inhibition at 78.1 µg/mL ([3]; read-out: Inhibition zone): 16 mm
- zone of inhibition at 156.3 µg/mL ([3]; read-out: Inhibition zone): 18 mm
- zone of inhibition at 312.5 µg/mL ([3]; read-out: Inhibition zone): 20 mm
- zone of inhibition at 625 µg/mL ([3]; read-out: Inhibition zone): 24 mm
- zone of inhibition at 1250 µg/mL ([3]; read-out: Inhibition zone): 26 mm
- zone of inhibition at 2500 µg/mL ([3]; read-out: Inhibition zone): 27 mm
- zone of inhibition at 5000 µg/mL ([3]; read-out: Inhibition zone): 28 mm
- zone of inhibition at 10000 µg/mL ([3]; read-out: Inhibition zone): 29 mm
- MIC ([3]; read-out: Minimum inhibition concentration (MIC)): 9.75 µg/mL (≈ 27.2 µM)
- Change (DNA fragmentation versus untreated cells) [4]: 24.5
- DNA fragmentation % M ± SEM ([4]; IC50 concentration, 24 h): 36.1 ± 0.60^a %
- Inhibition ([4]; doxorubicin = 0.0): 21.89
- FASN gene expression level [5]: suppression
- mortality at 100 µg/mL ([6]; Homo sapiens, 100 μg/mL): 100%
- IC50 ([6]; Homo sapiens): 102 µM
- IC50 [6]: 102.1 ± 0.95 µM

— article PMC10579241, “Impact of trifluoromethyl and sulfonyl groups on the biological activity of novel aryl-urea derivatives: synthesis, in-vitro, in-silico and SAR studies” (Scientific Reports, 2023)
